Results on one compound are retold here after patent US11180518B2, “Phenyl-heterocycle-phenyl derivatives for use in the treatment or prevention of melanoma” (MAX-PLANCK-GESELLSCHAFT ZUR FÖRDERUNG DER WISSENSCHAFTEN …, priority 2017, dated 2021).

Structures are written as SMILES.

The test deals with WM983-A melanoma cells. The test is described as follows: Melanoma cell proliferation analysis (hemocytometer counting). The test is classed as cell-based, human. An excerpt:
To assess the possible impact of anle138b as well as anle138c on the different melanoma cell lines, WM983-A, WM983-B and SK-MEL-5, we treated them with increasing doses of either compound, dissolved in dimethyl sulfoxide (DMSO), and added to serum-free culture medium. […] We also observed that treatment with anle138b caused a more rapid morphological change than anle138c. To determine whether the effect of the two anle compounds was related to the amount of α-synuclein produced by the cells, we compared the proliferation of the (VGP) WM983-A high-level and the (RGP/VGP) WM1158 low-level α-synuclein-producing melanoma cells over a period of 96 hr, with replenishment of each anle compound at 48 hr (FIGS. 8A and B).
To compare how rapidly anle138b affected the proliferation of melanoma cells, expressing α-synuclein at a high level, we treated the melanoma cell lines, WM983-A (VGP) and WM983-B (MGP), for 24, 48 or 72 hr with 10 μM of anle138b, with replenishment of the compound (10 μM) at 48 hr.
10 or 30 mM stock solutions of anle138b or anle138c were made in DMSO. […] Proliferation of melanoma cells that had received DMSO only, or were treated with anle138b was determined by counting the cells with a hemocytometer.

In the case of `Brc1cccc(-c2cc(-c3ccc4c(c3)OCO4)n[nH]2)c1` [anle138b, 5-(3-Bromophenyl)-3-(3,4-methylenedioxyphenyl)-1H-pyrazole], the “proliferation of residual cells after removal of compound” value (removal of compound-containing medium at 96 hr, then serum-free medium) is “not able to proliferate again”. Besides, the proliferation result (single dose of 10 μM, 24 hr) is “inhibited the proliferation of both cell lines to a significant extent”.
